# Test results taken from article PMC3536977, “4,6-α-Glucanotransferase activity occurs more widespread in Lactobacillus strains and constitutes a separate GH70 subfamily” (Applied Microbiology and Biotechnology, 2012).
# Target: T1, 4,6-αGT-ML4 (Limosilactobacillus reuteri, UniProt Q5SBN1)
# T1 construct: full-length 180 kDa
# Test: 1H NMR / TLC / HPAEC of product mixture
# Assay type: biochemical
# Conditions: sodium acetate 25 mM pH 4.7, 1 mM CaCl2, 37 °C, 40 h, 25 μg/ml enzyme
# T1 sequence (Q5SBN1 entry or part of it): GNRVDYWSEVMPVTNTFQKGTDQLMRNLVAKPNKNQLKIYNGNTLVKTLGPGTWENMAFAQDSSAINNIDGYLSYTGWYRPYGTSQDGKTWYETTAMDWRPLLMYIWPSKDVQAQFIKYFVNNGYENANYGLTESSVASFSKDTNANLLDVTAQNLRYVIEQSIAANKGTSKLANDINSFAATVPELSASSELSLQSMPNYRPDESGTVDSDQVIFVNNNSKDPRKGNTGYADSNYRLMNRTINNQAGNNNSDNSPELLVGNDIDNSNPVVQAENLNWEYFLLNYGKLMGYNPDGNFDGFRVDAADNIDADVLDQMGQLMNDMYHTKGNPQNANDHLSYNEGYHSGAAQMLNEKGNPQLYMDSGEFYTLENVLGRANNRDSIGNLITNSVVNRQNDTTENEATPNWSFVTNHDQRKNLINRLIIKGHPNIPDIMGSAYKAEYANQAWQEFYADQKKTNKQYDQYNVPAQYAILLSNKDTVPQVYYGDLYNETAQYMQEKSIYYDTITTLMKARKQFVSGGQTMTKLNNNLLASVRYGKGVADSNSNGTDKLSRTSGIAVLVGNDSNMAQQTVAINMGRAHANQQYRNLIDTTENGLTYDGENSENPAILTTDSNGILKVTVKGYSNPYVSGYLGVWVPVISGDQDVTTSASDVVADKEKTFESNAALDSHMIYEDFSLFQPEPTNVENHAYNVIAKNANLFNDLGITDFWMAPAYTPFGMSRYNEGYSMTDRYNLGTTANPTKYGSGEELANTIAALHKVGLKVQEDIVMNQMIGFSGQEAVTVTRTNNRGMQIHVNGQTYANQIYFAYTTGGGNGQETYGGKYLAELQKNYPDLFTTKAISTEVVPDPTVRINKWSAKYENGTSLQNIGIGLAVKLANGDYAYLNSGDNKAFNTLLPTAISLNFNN
smiles,measurement,value
"OC[C@H]1O[C@H](O[C@H]2[C@H](O)[C@@H](O)[C@@H](O[C@H]3[C@H](O)[C@@H](O)[C@@H](O[C@H]4[C@H](O)[C@@H](O)[C@@H](O[C@H]5[C@H](O)[C@@H](O)[C@@H](O[C@H]6[C@H](O)[C@@H](O)C(O)O[C@@H]6CO)O[C@@H]5CO)O[C@@H]4CO)O[C@@H]3CO)O[C@@H]2CO)[C@H](O)[C@@H](O)[C@@H]1O (stereo partly shown) [DP6, maltohexaose]",1H NMR / TLC / HPAEC of product mixture,"generated from maltohexaose, showing a linkage ratio"
